From patent US9901536B2, “Composition for improving skin, containing pomegranate concentrate as active ingredient” (HLSCIENCE CO., LTD., priority 2014, dated 2018) come the findings set out here.

Assay [1] relates to melanin synthesis in Melan-a cells. Nature of the assay: Inhibition of melanin synthesis in Melan-a cells. It is filed as cell-based, mouse. To be noted: 100 μM, 6 days. As for the experimental part:
For evaluation of skin-whitening effect, Melan-a cells derived from C57BL/6J (black, a/a) mouse, provided by Dr. Dorothy C Benette (St George's Hospital, London, UK), were used as an immortalized cell line (Bennett D C, Cooper P J, Hart I R. A line of non-tumorigenic mouse melanocyte, syngeneic with the B16 melanoma and requiring a tumor promoter for growth. Int J Cancer 1987; 39: 414-418). The cells were cultured at 37° C. in a 5% carbon dioxide incubator after adding the RPMI 1640 medium containing 10% fetal bovine serum, 50 U/mL penicillin, 50 μg/mL streptomycin, 200 nM phorbol 12-myristate 13-acetate (PMA).
Melan-a cells were seeded onto a 24-well plate with 3×10^4 cells/well. After culturing the cells in an incubator for 24 hours so that the cells adhered well to the plate, the test solution diluted with a culture medium to different concentrations were added to the respective wells. The test sample was treated once in 3 days, for a total of 6 days. […] The cells were lysed with 1 N NaOH and then centrifuged. After separating the supernatant, the total amount of proteins was quantified by measuring absorbance at 405 nm. The melanin content was determined from the protein quantity.

For assay [2], the system named is elastase. The assay can be described thus: Elastase inhibition assay. Format: biochemical, human. The settings on record: 10 μM. As for the experimental part: The HDF-N fibroblasts were used to measure the effect of the test solution on elastase activity. For this, the cultured HDF-N cells were treated with 0.2 M Tris-HCl (pH 8.0) containing 0.1% Triton X-100 and lysed by sonication. After centrifuging at 3,000 rpm for 20 minutes and taking the supernatant, the activity of the enzyme was measured by quantifying it and the total protein quantity. For measurement of the elastase activity, the homogenized fibroblasts were treated with 200 μg/mL elastase, 0.2 M Tris-HCl buffer and the sample at different concentrations. After adding 50 mM STANA, a substrate specific for elastase, and incubating at 37° C., absorbance was measured at 405 nm. The degree of elastase activity inhibition was compared with a control group not treated with the test solution. Phosphoramidon was used as a positive control group.

The test system of assay [3] is hyaluronan synthesis in HaCaT cells. Nature of the assay: Hyaluronan synthesis in keratinocytes by ELISA. It is filed as cell-based, human. The settings on record: 20 mM, 24 h. How it is done:
Human keratinocytes (HaCaT cells, ATCC) were seeded onto the bottom of a culture dish and cultured at 37° C. in a 5% carbon dioxide incubator after adding Dulbecco's modified Eagle's medium (DMEM, Welgene, Korea) containing penicillin (100 IU/mL), streptomycin (10 μg/mL) and 10% FBS.
The skin-moisturizing effect of the samples was evaluated by measuring the degree of hyaluronan synthesis in keratinocytes by ELISA. For this, the HaCaT cells were seeded onto a plate at 5×10^4 cells/well and cultured for 24 hours. 24 hours later, the cells were treated with the test samples diluted with the DMEM cell culture medium (without supplements) and cultured for 24 hours. The cultured cells were recovered and the quantity of hyaluronan was measured by hyaluronan ELISA (R&D Systems, DY3614). The cells adherent to the bottom were washed with PBS and lysed with 1 N NaOH to determine the total amount of proteins. Then, the quantity of hyaluronan per given quantity of proteins was calculated.
The protein quantity was measured using a Bio-Rad DC protein kit according to the Lowry method.
(In general: In an ELISA, binding on a coated surface is turned into a signal by an enzyme label.)

Assay [4] has as its system procollagen synthesis in HDF-N cells. The assay can be described thus: Procollagen synthesis (PIP EIA) in HDF-N cells. Format: cell-based, human. To be noted: 10 ng/ml, 24 h. How it is done:
(§1) For testing of wrinkle improvement, normal human primary dermal fibroblasts, neonatal (HDF-N) derived from the human neonatal foreskin were used. The cells were seeded onto the bottom of a culture dish and cultured at 37° C. in a 5% carbon dioxide incubator after adding the fibroblast basal medium (FBM, Lonza, CC-3131) containing 0.1% insulin, 0.1% rhFGF, 0.1% gentamicin and 2% FBS.
In order to measure the effect of promoting procollagen synthesis of the test solution, HDF-N cells were seeded onto a 48-well plate with 1×10^4 cells/well and then cultured for 24 hours. Then, after maintaining a starvation state for 24 hours, the cells were treated with the test solution diluted with the cell culture medium FBM (without supplements) at different concentrations and then cultured for 24 hours. The cultured cells were recovered and the quantity of procollagen was measured using the procollagen type I c-peptide (PIP) EIA kit (Takara, MK101). The cells adherent to the bottom were washed with PBS and lysed with 1 N NaOH to determine the total amount of proteins. Then, the quantity of procollagen per given quantity of proteins was calculated.

Assay [5] has as its system MMP-1. The assay can be described thus: Inhibition of UV-induced MMP-1 expression in HDF-N cells. Format: cell-based, human. To be noted: UVA 5 J/cm^2, 1 μM. As for the experimental part:
as §1
The effect of the test solution on UV-induced MMP-1 expression was evaluated in order to evaluate the wrinkle-improving effect of the sample by measuring the activity of matrix metalloproteinase (MMP-1) by immuno-ELISA assay. HDF-N cells were seeded onto a 24-well plate with 2×10^4 cells/well and then cultured for 24 hours. 24 hours later, after discarding the medium and washing with DPBS, 200 μL of DPBS was added and 5 J/cm^2 of UV-A was irradiated. After treating the cells with the sample diluted to an adequate concentration, the cells were cultured for 24 hours. Then, the culture medium was taken and the quantity of MMP-1 was measured with the human total MMP-1 ELISA kit (R&D Systems, DY901). The measured quantity of MMP-1 was calibrated with the total protein quantity.

Where “and” joins values, the source holds several entries; their conditions need not be identical. Equal values may be shown once.

As for `OC[C@H]1O[C@@H](Oc2ccc(O)cc2)[C@H](O)[C@@H](O)[C@@H]1O` [Arbutin], the “melanin content, % control” value in assay [1] was 73.54 ± 5.397 % control; in assay [1] (listed as arbutin), “melanin synthesis was inhibited”.

With `CC(C)C[C@H](NP(=O)(O)O[C@@H]1O[C@@H](C)[C@H](O)[C@@H](O)[C@H]1O)C(=O)N[C@@H](Cc1c[nH]c2ccccc12)C(=O)O` [Phosphoramidon], the results for the “elastase activity, % control” value in assay [2] and in assay [2] (listed as phosphoramidon) were 74.90 ± 5.962 % control and 74.9 % control, respectively. As to `CC(=O)N[C@H]1C(O)O[C@H](CO)[C@@H](O)[C@@H]1O` (stereo partly drawn) [NAG, N-Acetyl-D-glucosamine], in assay [3], the “hyaluronan, % control” value is 224.8 % control and 224.85 ± 16.937 % control. As to Transforming growth factor-β [TGF-β], the “procollagen production, % control” value in assay [4] is 150.8 % control and 150.88 ± 5.366 % control.

Turning to `CC1=C(/C=C/C(C)=C/C=C/C(C)=C/C(=O)O)C(C)(C)CCC1` [Retinoic acid], the “MMP-1 production, % UV−” value in assay [5] came to 171.68 ± 10.422 % UV−; in assay [5] (listed as retinoic acid), 171.6 % UV−.
